Measured values reported in PMC7614683, “A small molecule PI3Kα activator for cardioprotection and neuroregeneration” (Nature, 2023).
Like-named read-outs stand apart in the source and are kept apart here.

What was measured:
Assay in all cases: SelectScreen Z-LYTE kinase activity assay (SI Table 6)
Type in all cases: biochemical
[1] = target: T1, protein kinases of the Z-LYTE panel (Homo sapiens, UniProt Q06418)
T1 sequence (Q06418 41-890): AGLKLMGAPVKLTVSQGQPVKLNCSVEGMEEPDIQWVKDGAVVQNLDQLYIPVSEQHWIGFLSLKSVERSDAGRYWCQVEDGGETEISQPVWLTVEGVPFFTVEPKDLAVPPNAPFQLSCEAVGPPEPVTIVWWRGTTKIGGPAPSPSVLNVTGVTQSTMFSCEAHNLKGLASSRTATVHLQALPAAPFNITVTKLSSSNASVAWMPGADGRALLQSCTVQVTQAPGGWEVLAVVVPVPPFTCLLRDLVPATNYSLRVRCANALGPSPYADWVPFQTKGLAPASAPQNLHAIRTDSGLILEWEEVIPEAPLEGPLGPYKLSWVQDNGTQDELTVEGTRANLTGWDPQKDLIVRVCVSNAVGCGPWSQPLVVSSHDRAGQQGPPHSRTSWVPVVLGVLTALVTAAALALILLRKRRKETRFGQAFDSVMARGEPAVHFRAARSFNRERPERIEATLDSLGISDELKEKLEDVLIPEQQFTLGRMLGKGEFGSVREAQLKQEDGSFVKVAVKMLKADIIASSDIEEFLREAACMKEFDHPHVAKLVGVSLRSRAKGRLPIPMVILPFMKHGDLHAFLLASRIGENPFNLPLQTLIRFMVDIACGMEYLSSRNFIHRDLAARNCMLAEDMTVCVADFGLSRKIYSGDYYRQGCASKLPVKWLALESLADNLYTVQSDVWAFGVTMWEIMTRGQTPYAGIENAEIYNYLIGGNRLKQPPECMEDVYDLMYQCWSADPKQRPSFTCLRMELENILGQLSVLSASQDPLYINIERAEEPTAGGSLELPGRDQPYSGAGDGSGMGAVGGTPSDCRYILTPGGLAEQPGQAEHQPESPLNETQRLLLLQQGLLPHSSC
Procedure, shortened: (§1)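 Compound 1938 counterscreened at 1 μM against 133 protein and 7 lipid kinases in the SelectScreen panel, using Adapta, LanthaScreen binding and Z-LYTE formats as applicable.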

[2] = target: protein kinases of the Z-LYTE panel (Homo sapiens, UniProt P49759)
Chain of protein kinases of the Z-LYTE panel (Homo sapiens, UniProt P49759) (P49759 whole entry): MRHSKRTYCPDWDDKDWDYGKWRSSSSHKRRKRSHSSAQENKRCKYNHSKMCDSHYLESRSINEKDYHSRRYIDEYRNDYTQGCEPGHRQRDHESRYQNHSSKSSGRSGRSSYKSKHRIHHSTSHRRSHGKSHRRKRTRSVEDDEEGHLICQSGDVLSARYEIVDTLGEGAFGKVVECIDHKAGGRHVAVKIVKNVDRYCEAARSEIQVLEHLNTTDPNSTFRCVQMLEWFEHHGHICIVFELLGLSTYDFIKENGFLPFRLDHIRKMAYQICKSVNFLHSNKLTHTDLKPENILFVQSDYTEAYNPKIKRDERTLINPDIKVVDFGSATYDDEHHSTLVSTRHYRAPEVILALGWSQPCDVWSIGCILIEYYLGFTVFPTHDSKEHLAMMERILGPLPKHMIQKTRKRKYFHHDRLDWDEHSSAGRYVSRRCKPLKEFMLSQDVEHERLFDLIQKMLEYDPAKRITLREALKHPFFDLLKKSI
Procedure, shortened: as §1

[3] = target: protein kinases of the Z-LYTE panel (Homo sapiens, UniProt P14616)
Chain of protein kinases of the Z-LYTE panel (Homo sapiens, UniProt P14616) (P14616 27-1297): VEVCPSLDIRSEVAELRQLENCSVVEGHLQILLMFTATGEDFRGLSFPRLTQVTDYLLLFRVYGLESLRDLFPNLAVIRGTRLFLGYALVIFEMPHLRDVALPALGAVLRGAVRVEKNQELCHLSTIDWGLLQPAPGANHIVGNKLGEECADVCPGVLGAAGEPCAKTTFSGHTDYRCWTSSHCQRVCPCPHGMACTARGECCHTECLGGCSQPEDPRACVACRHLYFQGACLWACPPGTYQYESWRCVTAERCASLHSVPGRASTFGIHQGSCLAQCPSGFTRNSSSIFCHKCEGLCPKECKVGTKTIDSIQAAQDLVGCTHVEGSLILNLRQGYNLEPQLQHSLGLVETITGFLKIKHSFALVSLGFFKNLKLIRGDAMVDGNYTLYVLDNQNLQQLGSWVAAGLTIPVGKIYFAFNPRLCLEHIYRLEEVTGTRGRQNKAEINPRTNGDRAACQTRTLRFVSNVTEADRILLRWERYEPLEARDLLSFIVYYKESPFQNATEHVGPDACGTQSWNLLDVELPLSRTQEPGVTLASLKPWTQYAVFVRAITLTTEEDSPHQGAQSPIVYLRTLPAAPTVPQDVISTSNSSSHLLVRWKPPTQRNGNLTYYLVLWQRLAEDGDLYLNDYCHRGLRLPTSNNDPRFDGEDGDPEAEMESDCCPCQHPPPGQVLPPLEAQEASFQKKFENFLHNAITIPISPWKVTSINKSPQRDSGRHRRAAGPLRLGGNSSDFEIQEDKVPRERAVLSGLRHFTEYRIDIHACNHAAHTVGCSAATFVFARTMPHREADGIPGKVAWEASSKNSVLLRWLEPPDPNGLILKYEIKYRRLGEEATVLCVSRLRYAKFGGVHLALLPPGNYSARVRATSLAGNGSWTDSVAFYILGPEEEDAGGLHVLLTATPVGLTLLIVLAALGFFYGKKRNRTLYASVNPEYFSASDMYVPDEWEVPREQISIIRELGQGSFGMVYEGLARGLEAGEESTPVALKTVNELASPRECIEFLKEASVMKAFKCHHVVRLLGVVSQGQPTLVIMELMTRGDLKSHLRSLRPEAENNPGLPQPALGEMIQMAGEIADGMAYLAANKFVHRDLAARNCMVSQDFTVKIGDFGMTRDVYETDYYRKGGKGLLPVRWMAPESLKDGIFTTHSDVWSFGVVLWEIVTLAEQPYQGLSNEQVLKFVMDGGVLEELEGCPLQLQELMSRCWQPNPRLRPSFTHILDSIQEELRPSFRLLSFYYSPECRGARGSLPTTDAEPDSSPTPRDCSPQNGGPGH
Procedure, shortened: as §1

`CCN1CCN(c2ccc(Nc3cc(Nc4cccc5c4N(C(C)=O)CC5)ccn3)cc2)CC1` [Compound 1938] gave an inhibition at 1 µM ([1]; read-out: % Inhibition Point 1) of 8%, an inhibition at 1 µM ([1]; read-out: % Inhibition Point 2) of 7.56% and an inhibition at 1 µM ([1]; read-out: % Inhibition mean) of 7.59%. It also gave an inhibition at 1 µM ([2]; read-out: % Inhibition Point 1) of 2.18%, an inhibition at 1 µM ([2]; read-out: % Inhibition Point 2) of 6% and an inhibition at 1 µM ([2]; read-out: % Inhibition mean) of 4%. For the same compound, the inhibition at 1 µM ([3]; read-out: % Inhibition Point 1) was 9%, the inhibition at 1 µM ([3]; read-out: % Inhibition Point 2) was 8% and the inhibition at 1 µM ([3]; read-out: % Inhibition mean) was 8%.
